Data on 52 compounds can be found in ChEMBL document CHEMBL5113491, “Discovery of N-benzylarylamide derivatives as novel tubulin polymerization inhibitors capable of activating the Hippo pathway” (Eur J Med Chem, 2022).

One test has as its system HCT-116. The test can be described thus: Antiproliferative activity against human HCT-116 cells assessed as inhibition of cell growth measured after 48 hrs by MTT assay. The class given is functional, cell-based. Particulars: HCT-116, 48 h. (Tetrazolium dyes change colour on reduction, which living cells bring about.)
Another test has as its system KYSE-450. Kind of test: Antiproliferative activity against human KYSE-450 cells assessed as inhibition of cell growth measured after 48 hrs by MTT assay. Particulars: KYSE-450, 48 h. The class given is functional, cell-based.
The next test concerns MGC-803. The test can be described thus: Antiproliferative activity against human MGC-803 cells assessed as inhibition of cell growth measured after 48 hrs by MTT assay. The class given is functional, cell-based. Particulars: MGC-803, 48 h.
A short description of test [1]: Inhibition of porcine brain microtubule polymerization measured after 1 hrs by fluorescence based assay. Set-up: species or system Sus scrofa.
The species entered for a further test is Sus scrofa. The test can be described thus: Inhibition of porcine brain microtubule polymerization at 3 umol/L measured after 5 sec by fluorescence based assay. Particulars: dose 3.0 µmol/L.

Calls of active or inactive are those of the source. The calls are words filed in the database; no cut-off is given here. Bounds are passed on as bounds.

One may read the IC50 as the concentration needed to halve the response being measured. With `COc1ccc(CN(C(=O)C[Se]C#N)c2cc(OC)c(OC)c(OC)c2)cc1O`, the IC50 was found to be 310 nM in the test on HCT-116, 280 nM with KYSE-450 and 270 nM with MGC-803.
With `COc1ccc(CN(C(=O)C(C)C)c2cc(OC)c(OC)c(OC)c2)cc1O`, the values for the half-inhibitory concentration (IC50) in the test with HCT-116, in the test with KYSE-450 and with MGC-803 were 310 nM, 390 nM and 210 nM, respectively.
Consider `COc1ccc(/C=C\c2cc(OC)c(OC)c(OC)c2)cc1O` [COMBRETASTATIN A4], for which the concentration for half-maximal inhibition (IC50) in the test with HCT-116 came to 10 nM; with KYSE-450 it was 12 nM; in the test on MGC-803, 8 nM; in test [1], 6710 nM.
For the compound `COc1ccc(CN(C(=O)CO)c2cc(OC)c(OC)c(OC)c2)cc1O`, the IC50 in the test on HCT-116 came out at 520 nM; in the test with KYSE-450 it was 370 nM; in the test on MGC-803, 160 nM.
The corresponding values for `COc1ccc(CN(C(=O)/C=C/CBr)c2cc(OC)c(OC)c(OC)c2)cc1O` are 59 nM, 100 nM and 71 nM.
As to `COc1ccc(CN(C(=O)C(C)Br)c2cc(OC)c(OC)c(OC)c2)cc1O` (centres undefined), the IC50 was 140 nM in the test on HCT-116, 160 nM in the test with KYSE-450 and 120 nM in the test on MGC-803.
For `COc1ccc(CN(C(C)=O)c2cc(OC)c(OC)c(OC)c2)cc1O`, in that order: 270 nM, 160 nM and 79 nM.
For `C/C=C/C(=O)N(Cc1ccc(OC)c(F)c1)c1cc(OC)c(OC)c(OC)c1`, the concentration for half-maximal inhibition (IC50) was 1160 nM in the test on HCT-116, 1400 nM with KYSE-450 and 1650 nM in the test on MGC-803.
Regarding `CCCCC(=O)N(Cc1ccc(OC)c(O)c1)c1cc(OC)c(OC)c(OC)c1`, the half-maximal inhibitory concentration (IC50) in the test with HCT-116 was determined as 170 nM; in the test on KYSE-450 it was 300 nM; with MGC-803, 66 nM.
The corresponding values for `COc1cc(NCc2ccc(Br)cc2)cc(OC)c1OC` are over 80000 nM, over 80000 nM and over 80000 nM.
For `C=C(C)C(=O)N(Cc1ccc(OC)c(O)c1)c1cc(OC)c(OC)c(OC)c1`, in that order: 200 nM, 200 nM and 390 nM.
The corresponding values for `COc1cc(NCc2ccc(Cl)cc2)cc(OC)c1OC` are over 80000 nM, over 80000 nM and over 80000 nM.
In the case of `C/C=C/C(=O)N(Cc1ccc(OC)c([N+](=O)[O-])c1)c1cc(OC)c(OC)c(OC)c1`, the IC50 in the test on HCT-116 turned out to be 670 nM; with KYSE-450, 510 nM; with MGC-803, 590 nM.
The corresponding values for `COc1ccc(CNc2cc(OC)c(OC)c(OC)c2)cc1Cl` are 41700 nM, 47800 nM and 46200 nM.
As for `COc1ccc(CNc2cc(OC)c(OC)c(OC)c2)cc1Br`, the IC50 was 48100 nM in the test with HCT-116, 39800 nM in the test on KYSE-450 and 29400 nM with MGC-803.
For `COc1ccc(NCc2cc(OC)c(OC)c(OC)c2)cc1O`, the IC50 in the test on HCT-116 worked out at 5230 nM; in the test with KYSE-450, 4180 nM; with MGC-803 it was 9590 nM. Also, in the test listed under Sus scrofa, the inhibition result is “Active”.
Turning to `COc1ccc(CNc2cc(OC)c(OC)c(OC)c2)cc1C`, the half-maximal inhibitory concentration (IC50) in the test with HCT-116 amounted to 60800 nM; in the test with KYSE-450 it was 73800 nM; in the test on MGC-803, 56800 nM.
The corresponding values for `COc1ccc(CN(C(=O)CBr)c2cc(OC)c(OC)c(OC)c2)cc1O` are 68 nM, 120 nM and 140 nM.
As to `COc1ccc(CNc2cc(OC)c(OC)c(OC)c2)cc1OC`, the half-inhibitory concentration (IC50) in the test on HCT-116 was determined as 50800 nM; in the test on KYSE-450 it was 57200 nM; in the test with MGC-803, 46200 nM.
The corresponding values for `COc1ccc(CNc2cc(OC)c(OC)c(OC)c2)cc1[N+](=O)[O-]` are 18200 nM, 16800 nM and 19400 nM.
For `COC(=O)c1cc(CNc2cc(OC)c(OC)c(OC)c2)ccc1OC`, in that order: 38100 nM, 41100 nM and 49600 nM.
On to `COc1ccc(N(Cc2cc(OC)c(OC)c(OC)c2)C(=O)CCl)cc1O`, for which the IC50 in the test with HCT-116 turned out to be 22500 nM; in the test with KYSE-450, 29800 nM; in the test with MGC-803 it was 24500 nM.
For `C/C=C/C(=O)N(Cc1cccc(O)c1)c1cc(OC)c(OC)c(OC)c1`, in that order: 6700 nM, 14700 nM and 14100 nM.
For `C/C=C/C(=O)N(Cc1ccc(OC)c(N)c1)c1cc(OC)c(OC)c(OC)c1`, the half-inhibitory concentration (IC50) was 300 nM in the test on HCT-116, 310 nM with KYSE-450 and 150 nM with MGC-803.
Take `COc1ccc(CN(C(=O)CN=[N+]=[N-])c2cc(OC)c(OC)c(OC)c2)cc1O`: the IC50 in the test on HCT-116 turned out to be 410 nM; in the test on KYSE-450, 160 nM; in the test on MGC-803, 120 nM.
For `CC/C=C/C(=O)N(Cc1ccc(OC)c(O)c1)c1cc(OC)c(OC)c(OC)c1`, in that order: 63 nM, 72 nM and 58 nM.
For `C/C=C/C(=O)N(Cc1ccc(OC)c(OC)c1)c1cc(OC)c(OC)c(OC)c1`, in that order: 32800 nM, 39100 nM and 20100 nM.
As to `COc1ccc(CNc2cc(OC)c(OC)c(OC)c2)cc1O`, the results for the IC50 in the test with HCT-116, in the test on KYSE-450 and with MGC-803 were 3220 nM, 1400 nM and 1490 nM, respectively. Besides, the inhibition result in the test filed under Sus scrofa was “Active”.
Consider `COCC(=O)N(Cc1ccc(OC)c(O)c1)c1cc(OC)c(OC)c(OC)c1`, for which the IC50 came to 230 nM with HCT-116, 460 nM in the test on KYSE-450 and 79 nM with MGC-803.
The corresponding values for `C/C=C/C(=O)N(Cc1ccc(OC)c(Br)c1)c1cc(OC)c(OC)c(OC)c1` are 2800 nM, 10500 nM and 6430 nM.
The corresponding values for `COc1ccc(CN(C(=O)CCl)c2cc(OC)c(OC)c(OC)c2)cc1O` are 250 nM, 210 nM and 84 nM.
For `COc1ccc(CNc2cc(OC)c(OC)c(OC)c2)cc1F`, in that order: 32200 nM, 46200 nM and 39700 nM.
On to `COc1cc(NCc2cccc(O)c2)cc(OC)c1OC`, for which the IC50 came out at 67700 nM in the test on HCT-116, 71300 nM in the test on KYSE-450 and 57600 nM in the test on MGC-803.
`COc1ccc(CNc2cc(OC)c(OC)c(OC)c2)cc1`: the results for the IC50 with HCT-116, in the test with KYSE-450 and with MGC-803 were 18400 nM, 4890 nM and 11400 nM, respectively.
The corresponding values for `COc1ccc(CN(C(=O)C2CC2)c2cc(OC)c(OC)c(OC)c2)cc1O` are 49 nM, 80 nM and 59 nM.
Regarding `C#CC(=O)N(Cc1ccc(OC)c(O)c1)c1cc(OC)c(OC)c(OC)c1`, the results for the IC50 with HCT-116, in the test with KYSE-450 and in the test on MGC-803 were 310 nM, 570 nM and 170 nM, respectively.
As to `COc1cc(NCc2ccc(C)cc2)cc(OC)c1OC`, the 50% inhibitory concentration (IC50) in the test on HCT-116, with KYSE-450 and in the test on MGC-803 was over 80000 nM throughout.
Turning to `COc1cc2c(c(OC)c1OC)-c1ccc(OC)c(=O)cc1[C@@H](NC(C)=O)CC2` [COLCHICINE], the IC50 in the test on HCT-116 turned out to be 81 nM; with KYSE-450 it was 77 nM; in the test on MGC-803, 62 nM.
For `C/C=C/C(=O)N(Cc1ccc(OC)cc1)c1cc(OC)c(OC)c(OC)c1`, the IC50 in the test with HCT-116 turned out to be 500 nM; with KYSE-450, 420 nM; with MGC-803, 450 nM.
The corresponding values for `C/C=C/C(=O)N(Cc1ccc(OC)c(Cl)c1)c1cc(OC)c(OC)c(OC)c1` are 1420 nM, 10100 nM and 7100 nM.
For `COc1ccc(CN(C(=O)C=C(C)C)c2cc(OC)c(OC)c(OC)c2)cc1O`, in that order: 290 nM, 280 nM and 320 nM.
On to `CCC/C=C/C(=O)N(Cc1ccc(OC)c(O)c1)c1cc(OC)c(OC)c(OC)c1`, for which the IC50 was 95 nM in the test with HCT-116, 57 nM in the test on KYSE-450 and 70 nM with MGC-803.
For `C=CC(=O)N(Cc1ccc(OC)c(O)c1)c1cc(OC)c(OC)c(OC)c1`, in that order: 98 nM, 160 nM and 62 nM.
As to `C/C=C/C=C/C(=O)N(Cc1ccc(OC)c(O)c1)c1cc(OC)c(OC)c(OC)c1`, the values for the IC50 with HCT-116, in the test with KYSE-450 and in the test with MGC-803 were 180 nM, 180 nM and 140 nM, respectively.
For `COc1ccc(CNc2cc(OC)c(OC)c(OC)c2)cc1N`, the IC50 with HCT-116 was 8270 nM; with KYSE-450, 2210 nM; in the test with MGC-803, 7970 nM.
For `COc1ccc(CN(C(=O)CCCl)c2cc(OC)c(OC)c(OC)c2)cc1O`, in that order: 150 nM, 110 nM and 140 nM.
The corresponding values for `COc1cc(NCc2ccccc2)cc(OC)c1OC` are over 80000 nM, over 80000 nM and over 80000 nM.
The corresponding values for `COc1ccc(N(Cc2cc(OC)c(OC)c(OC)c2)C(=O)CN=[N+]=[N-])cc1O` are 38800 nM, 26100 nM and 22400 nM.
As for `COc1ccc(CN(C(=O)CCCCCl)c2cc(OC)c(OC)c(OC)c2)cc1O`, the IC50 was determined as 220 nM in the test with HCT-116, 770 nM with KYSE-450 and 540 nM with MGC-803.
The corresponding values for `C/C=C/C(=O)N(Cc1ccc(OC)c(C)c1)c1cc(OC)c(OC)c(OC)c1` are 23500 nM, 32900 nM and 14500 nM.
As for `C/C=C/C(=O)N(Cc1cc(OC)c(OC)c(OC)c1)c1ccc(OC)c(O)c1`, the IC50 came to 8450 nM in the test with HCT-116, 9160 nM in the test on KYSE-450 and 6150 nM with MGC-803.
The corresponding values for `CCC(=O)N(Cc1ccc(OC)c(O)c1)c1cc(OC)c(OC)c(OC)c1` are 61 nM, 98 nM and 50 nM.
